Laboratory results: ChEMBL document CHEMBL1201862, “PubChem BioAssay data set” (2004)
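Test compounds were applied to cells in 96-well plates for 48 hours at 5 doses. GI50: concentration for 50% inhibition of growth.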 The source made the active and inactive calls. No stated cut-off is given here; in the data, active = GI50 up to about 1.1 µM and inactive = higher.

What was measured:
Assay in all cases: inhibition of tumour cell growth, NCI panel, 48 h
[1] = test system: A498
[2] = test system: A549
[3] = test system: ACHN
[4] = test system: COLO 205
[5] = test system: DU-145
[6] = test system: HCT-116
[7] = test system: HCT-15
[8] = test system: HOP-92
[9] = test system: HT-29
[10] = test system: KM12
[11] = test system: MDA-MB-231
[12] = test system: NCI-H226
[13] = test system: NCI-H23
[14] = test system: SF-268
[15] = test system: SK-MEL-5
[16] = test system: SK-OV-3
[17] = test system: SNB-19
[18] = test system: UACC-62
[19] = test system: UO-31

## CCc1ccc2c(c1)/C(=C1/Nc3ccccc3C1=O)C(=O)N2
[1]
  GI50: 4.13 µM (inactive)
[2]
  GI50: 13.8 µM (inactive)
[3]
  GI50: 5.66 µM (inactive)
[4]
  GI50: 14.5 µM (inactive)
[5]
  GI50: 41.3 µM (inactive)
[6]
  GI50: 7.43 µM (inactive)
[7]
  GI50: 31.7 µM
[8]
  GI50: 33.3 µM (inactive)
[9]
  GI50: 25.4 µM (inactive)
[10]
  GI50: 0.428 µM (active)
[11]
  GI50: 34 µM (inactive)
[12]
  GI50: 18.7 µM (inactive)
[13]
  GI50: 29.6 µM (inactive)
[14]
  GI50: 19.6 µM (inactive)
[15]
  GI50: 9.62 µM (inactive)
[16]
  GI50: 10.3 µM (inactive)
[17]
  GI50: 11 µM (inactive)
[18]
  GI50: 15.4 µM (inactive)
[19]
  GI50: 7.38 µM (inactive)

## O=C(O)C1=C(C(=O)O)N(c2ccncc2)C(c2ccco2)=CC1c1ccccc1[N+](=O)[O-] (stereo not drawn)
[1]
  GI50: 11.8 µM (inactive)
[2]
  GI50: 16.2 µM (inactive)
[3]
  GI50: 1.72 µM (inactive)
[4]
  GI50: 14.2 µM (inactive)
[5]
  GI50: 12.1 µM (inactive)
[6]
  GI50: 1.83 µM (inactive)
[7]
  GI50: 1.81 µM
[8]
  GI50: 7.06 µM (inactive)
[9]
  GI50: 2.18 µM (inactive)
[10]
  GI50: 1.62 µM (inactive)
[11]
  GI50: 14.2 µM (inactive)
[12]
  GI50: 9.59 µM (inactive)
[13]
  GI50: 12.4 µM (inactive)
[14]
  GI50: 13.1 µM (inactive)
[15]
  GI50: 5.82 µM (inactive)
[16]
  GI50: 18 µM (inactive)
[17]
  GI50: 12.9 µM (inactive)
[18]
  GI50: 15.3 µM (inactive)
[19]
  GI50: 8.26 µM (inactive)

## CNc1c2cccc(C)c2nc2c(C(=O)NCCN(C)C)cccc12
[1]
  GI50: 0.213 µM (active)
[2]
  GI50: 0.034 µM (active)
[3]
  GI50: < 0.024 µM (active)
[4]
  GI50: 0.0423 µM (active)
[5]
  GI50: 0.0946 µM (active)
[6]
  GI50: 0.0377 µM (active)
[7]
  GI50: 0.115 µM
[8]
  GI50: 0.122 µM (active)
[9]
  GI50: < 0.0197 µM (active)
[10]
  GI50: 0.127 µM (active)
[11]
  GI50: < 0.0498 µM (active)
[12]
  GI50: 0.116 µM (active)
[13]
  GI50: 0.107 µM (active)
[14]
  GI50: 0.0445 µM (active)
[15]
  GI50: 0.18 µM (active)
[16]
  GI50: 0.252 µM (active)
[17]
  GI50: 0.0805 µM (active)
[18]
  GI50: 0.167 µM (active)
[19]
  GI50: 0.2 µM (active)

## C[Si](C)(C)c1ccc(-c2c3ccc(-c4cc(Br)cc(Br)c4)nc3nc3nc(-c4cc(Br)cc(Br)c4)ccc23)cc1
[1]
  GI50: > 100 µM (inactive)
[2]
  GI50: > 100 µM (inactive)
[3]
  GI50: > 100 µM (inactive)
[4]
  GI50: > 100 µM (inactive)
[5]
  GI50: > 100 µM (inactive)
[6]
  GI50: > 100 µM (inactive)
[7]
  GI50: > 100 µM
[8]
  GI50: > 100 µM (inactive)
[10]
  GI50: > 100 µM (inactive)
[11]
  GI50: > 100 µM (inactive)
[12]
  GI50: > 100 µM (inactive)
[13]
  GI50: > 100 µM (inactive)
[14]
  GI50: > 100 µM (inactive)
[15]
  GI50: > 100 µM (inactive)
[16]
  GI50: > 100 µM (inactive)
[17]
  GI50: > 100 µM (inactive)
[18]
  GI50: > 100 µM (inactive)
[19]
  GI50: > 100 µM (inactive)

## CC(=O)OCC(OC(C)=O)C1C[C@H]2O[C@@H]3[C@H](C[C@H]2O1)O[C@@]1(C[C@@H]3C)C[C@H](C)[C@@H]2O[C@]3(C[C@@H]2O1)C[C@H]1O[C@H]2[C@H](C)[C@H]4OC(=O)C[C@H]5CC[C@@H]6OC7[C@H]8O[C@]9(CC[C@H]%10CC(=O)[C@H](CC[C@H]%11C[C@@H](C)C(=O)C(C[C@@H]4O[C@H]2C[C@H]1O3)O%11)O%10)CC8O[C@@H]7[C@@H](O9)[C@H]6O5 (stereo partly drawn)
[1]
  GI50: > 0.434 µM (active)
[2]
  GI50: 0.00501 µM (active)
[3]
  GI50: 0.0627 µM (active)
[4]
  GI50: 0.00281 µM (active)
[5]
  GI50: 0.00423 µM (active)
[6]
  GI50: 0.00234 µM (active)
[7]
  GI50: 0.00635 µM
[8]
  GI50: 0.0611 µM (active)
[10]
  GI50: 0.00183 µM (active)
[11]
  GI50: 0.0199 µM (active)
[12]
  GI50: 0.00703 µM (active)
[13]
  GI50: 0.00267 µM (active)
[14]
  GI50: 0.00509 µM (active)
[15]
  GI50: 0.000458 µM (active)
[16]
  GI50: 0.00728 µM (active)
[17]
  GI50: 0.0101 µM (active)
[18]
  GI50: 0.00248 µM (active)
[19]
  GI50: 0.0388 µM (active)
